# Data: patent US4692443A, “3-bicyclicpyridinium-methyl cephalosporins” (Eli Lilly and Company, priority 1984, dated 1987)
# Assays:
# Format in all cases: cell-based
# Staph. epi EPI1 = test: standard in vitro agar dilution assay (MIC); settings: Staph. epi strain EPI1
# H. influ. 76 = test: standard in vitro agar dilution assay (MIC); settings: H. influ. strain 76; read-out: Agar Dilution MIC
# Klebsiella X26 = test: standard in vitro agar dilution assay (MIC); settings: Klebsiella strain X26; read-out: Agar Dilution MIC
# Staph. epi 222 = test: standard in vitro agar dilution assay (MIC); settings: Staph. epi strain 222
# E. coli N10 = test: standard in vitro agar dilution assay (MIC); settings: Escherichia coli; E. coli strain N10; read-out: Agar Dilution MIC
# Strep. D X66 = test: standard in vitro agar dilution assay (MIC); settings: Strep. D strain X66
# Klebsiella KAE = test: standard in vitro agar dilution assay (MIC); settings: Klebsiella strain KAE; read-out: Agar Dilution MIC
# E. coli EC14 = test: standard in vitro agar dilution assay (MIC); settings: Escherichia coli; E. coli strain EC14; read-out: Agar Dilution MIC
# Klebsiella X68 = test: standard in vitro agar dilution assay (MIC); settings: Klebsiella strain X68; read-out: Agar Dilution MIC
# Strep. D 9960 = test: standard in vitro agar dilution assay (MIC); settings: Strep. D strain 9960
# Strep. A C203 = test: standard in vitro agar dilution assay (MIC); settings: Strep. A strain C203
# Staph. aureus X1.1 = test: standard in vitro agar dilution assay (MIC); settings: Staphylococcus aureus; Staph. aureus strain X1.1; read-out: Agar Dilution MIC
# Staph. aureus X400 = test: standard in vitro agar dilution assay (MIC); settings: Staphylococcus aureus; Staph. aureus strain X400
# E. coli TEM = test: standard in vitro agar dilution assay (MIC); settings: Escherichia coli; E. coli strain TEM; read-out: Agar Dilution MIC
# Staph. aureus S13E = test: microbe, parasite or virus in culture; settings: Staphylococcus aureus, read-out: Agar Dilution MIC
# Salmonella X514 = test: standard in vitro agar dilution assay (MIC); settings: Salmonella strain X514; read-out: Agar Dilution MIC
# Serratia X99 = test: standard in vitro agar dilution assay (MIC); settings: Serratia strain X99; read-out: Agar Dilution MIC
# Pseudomonas X528 = test: standard in vitro agar dilution assay (MIC); settings: Pseudomonas strain X528
# Source text: The antibacterial activity of several representative compounds of the invention has been evaluated in standard in vitro agar dilution assays. The following Table presents typical minimum inhibitory concentrations (MIC's) in μg /ml for exemplary compounds when evaluated against typical Gram + and Gram - microorganism.
# Strep. PN PARK = test: standard in vitro agar dilution assay (MIC); settings: Strep. PN strain PARK
# H. influ. C.L. = test: standard in vitro agar dilution assay (MIC); settings: H. influ. strain C.L.; read-out: Agar Dilution MIC
# Pseudomonas X239 = test: standard in vitro agar dilution assay (MIC); settings: Pseudomonas strain X239
# [1] = test system: Enterobacter aerogenes C32; test: standard in vitro agar dilution assay (MIC); settings: Klebsiella aerogenes; Enterobacter aerogenes strain C32; read-out: Agar Dilution MIC
# Staph. aureus V41 = test: standard in vitro agar dilution assay (MIC); settings: Staphylococcus aureus; Staph. aureus strain V41; read-out: Agar Dilution MIC
SMILES,MIC (Staph. epi EPI1) [µg/mL],MIC (Klebsiella X26) [µg/mL],MIC (Staph. epi 222) [µg/mL],MIC (E. coli N10) [µg/mL],MIC (Strep. D X66) [µg/mL],MIC (Klebsiella KAE) [µg/mL],MIC (E. coli EC14) [µg/mL],MIC (Klebsiella X68) [µg/mL],MIC (Strep. D 9960) [µg/mL],MIC (Strep. A C203) [µg/mL],MIC (Staph. aureus X1.1) [µg/mL],MIC (Staph. aureus X400) [µg/mL],MIC (E. coli TEM) [µg/mL],MIC (Staph. aureus S13E) [µg/mL],MIC (Salmonella X514) [µg/mL],MIC (Pseudomonas X528) [µg/mL],MIC (Strep. PN PARK) [µg/mL],MIC (Pseudomonas X239) [µg/mL],MIC [1] [µg/mL],MIC (Staph. aureus V41) [µg/mL],also measured
"CO/N=C(\C(=O)NC1C(=O)N2C(C(=O)[O-])=C(C[n+]3ccc4nc(C)n(C)c4c3)CSC12)c1csc(N)n1 (stereo not drawn) [Example 7, syn-7-[2-(2-aminothiazol-4-yl)-2-methoxyiminoacetamido]-3-(2,3-dimethyl-3H-imidazolo[4,5-c]pyridinium-5-ylmethyl)-3-cephem-4-carboxylate]",4,0.015,2,0.03,> 128,2,0.015,0.03,4,0.015,2,128,0.015,–,–,–,–,–,–,–,MIC (H. influ. 76): 0.03 µg/mL
"CO/N=C(\C(=O)NC1C(=O)N2C(C(=O)[O-])=C(C[n+]3ccc4[nH]cnc4c3)CSC12)c1csc(N)n1 (stereo not drawn) [Example 2, syn-7-[2-(2-Aminotiazol-4-yl)-2-methoxyiminoacetamido]-3-(1H-imidazolo[4,5-c]pyridinium-5-ylmethyl)-3-cephem-4-carboxylate]",4,< 0.008,1,0.015,–,4,< 0.008,< 0.008,2,< 0.008,1,64,< 0.008,8,< 0.008,1,< 0.008,2,0.03,8,MIC (H. influ. 76): 0.015 µg/mL; MIC (Serratia X99): 0.015 µg/mL; MIC (H. influ. C.L.): 0.015 µg/mL
"CO/N=C(\C(=O)NC1C(=O)N2C(C(=O)[O-])=C(C[n+]3ccc4c(c3)nc(C)n4C)CSC12)c1csc(N)n1 (stereo not drawn) [Example 6, syn-7-[2-(2-aminothiazol-4-yl)-2-methoxyiminoacetamido]-3-(1,2-dimethyl-1H-imidazolo[4,5-c]pyridinium-5-ylmethyl)-3-cephem-4-carboxylate]",2,< 0.008,1,0.03,> 128,2,< 0.008,0.03,4,< 0.008,2,32,< 0.008,8,0.03,4,< 0.008,4,0.03,16,–
"CO/N=C(\C(=O)NC1C(=O)N2C(C(=O)[O-])=C(C[n+]3ccc4scnc4c3)CSC12)c1csc(N)n1 (stereo not drawn) [Example 12, syn-7-[2-(2-aminothiazol-4-yl)-2-methoxyiminoacetamido]-3-(thiazolo[4,5-c]pyridinium-5-ylmethyl)-3-cephem-4-carboxylate]",2,0.015,–,0.03,128,4,0.015,0.03,4,0.015,1,2,–,8,0.03,1,0.015,2,0.03,2,–
